Where two headings read alike, the source gives them in different places.
How the values were obtained:
[1] = test system: recombinant VACV (vL1Ri) EGFP under synthetic early/late promoter; type: cell-based, vaccinia virus
[2] = test system: E9/A20/D4 dependent in vitro DNA synthesis; settings: cited from earlier work
[3] = test system: vaccinia virus (VACV); test: microbe, parasite or virus in culture; type: cell-based; settings: for IC50: Orthopoxvirus vaccinia
[4] = test system: VACV viral factories in BSC-1 cells; type: cell-based, vaccinia virus
[5] = test system: E3 protein; type: cell-based, vaccinia virus
[6] = test system: A4 protein; type: cell-based, vaccinia virus

Structure (SMILES)	antiviral activity (in words) [3]	further results
Nc1ccn(C[C@@H](CO)OCP(=O)(O)O)c(=O)n1.O.O [CDV, cidofovir, reference compound]		EGFP expression [1]: equally effective; EGFP expression, treatment post vL1Ri adsorption [1]: comparable EGFP expression and CPE to DMSO vehicle
Cc1ccc2c(Sc3ccc(Cl)cc3)c(C(=O)O)[nH]c2c1 [Compound 1, 3-((4-Chlorophenyl)thio)-6-methyl-1H-indole-2-carboxylic acid]		inhibition of in vitro DNA synthesis [2]: ability to inhibit in vitro DNA synthesis
O=C(O)c1[nH]c2ccccc2c1Sc1ccc(Cl)cc1 [Compound 1d]	loss of activity	
COc1cccc2[nH]c(C(=O)O)c(Sc3ccc(Cl)cc3)c12 [Compound 1i]	loss of activity	
Cc1ccc2c(c1)c(Sc1ccc(Cl)cc1)c(C(=O)O)n2C [Compound 2]	loss	
CCn1c(C(=O)O)c(Sc2ccc(Cl)cc2)c2cc(C)ccc21 [Compound 3]	no gain in activities	
COC(=O)c1[nH]c2cc(C)ccc2c1Sc1ccc(Cl)cc1 [Compound 6]		fold improvement in antiviral potency over parent 1 [3]: ~ 4 fold
COC(=O)c1[nH]c2ccc(C)cc2c1Sc1ccc(Cl)cc1 [Compound 7]	lost activity	
COC(=O)c1[nH]c2c(C)cccc2c1Sc1ccc(Cl)cc1 [Compound 8]		fold improvement in antiviral potency over parent 1 [3]: ~ 4 fold
COC(=O)c1[nH]c2cccc(C)c2c1Sc1ccc(Cl)cc1 [Compound 9]		fold improvement in antiviral potency over parent 1 [3]: ~ 4 fold
Cc1ccc2c(Sc3ccccc3)c(C(=O)O)[nH]c2c1 [Compound 18]	abolished its antiviral activity	
Cc1ccc2c(Sc3cccc(F)c3)c(C(=O)O)[nH]c2c1 [Compound 18b]		IC50 ([3]; read-out: IC50 (antiviral activity, Table 2)): 56 µM
Cc1ccc2c(Sc3ccc(Br)cc3)c(C(=O)O)[nH]c2c1 [Compound 18c]	loss of activity	
Cc1ccc(Sc2c(C(=O)O)[nH]c3cc(C)ccc23)cc1 [Compound 18d]	failed to show antiviral activities	
COc1ccc(Sc2c(C(=O)O)[nH]c3cc(C)ccc23)cc1 [Compound 18e]	failed to show antiviral activities	
Cc1ccc2c(Sc3ccc(C(=O)O)cc3)c(C(=O)O)[nH]c2c1 [Compound 18f]	loss of activity	
COc1ccc(Sc2c(C(=O)O)[nH]c3cccc(C)c23)cc1 [Compound 19]	failed to show antiviral activities	
Cc1ccc(Sc2c(C(=O)O)[nH]c3cccc(C)c23)cc1 [Compound 19a]	failed to show antiviral activities	
COC(=O)c1ccc(Sc2c(C(=O)O)[nH]c3cccc(C)c23)cc1 [Compound 19b]	failed to show antiviral activities	
Cc1cccc2[nH]c(C(=O)O)c(Sc3ccc([N+](=O)[O-])cc3)c12 [Compound 19c]	loss of activity	
Cc1ccc2c(Sc3cc(Cl)cc(Cl)c3)c(CCC(N)=O)[nH]c2c1 [Compound 24a, 3-(3-((3,5-Dichlorophenyl)thio)-6-methyl-1H-indol-2-yl)propanamide]		BrdU labeling of viral factories [4]: significantly suppressed; E3 early protein level [5]: slight decrease; EGFP expression [1]: significantly reduced; EGFP expression, treatment post vL1Ri adsorption [1]: appreciable EGFP expression; cytopathic effect (CPE) [1]: lowered; A4 late protein level [6]: dramatically reduced in a dose-dependent manner
Cc1ccc2c(Sc3cc(Cl)cc(Cl)c3)c(CCCC(N)=O)[nH]c2c1 [Compound 24c, 4-(3-((3,5-Dichlorophenyl)thio)-6-methyl-1H-indol-2-yl)butanamide]		fold decrease in antiviral potency [3]: ~ 5 fold
Cc1ccc2c(Sc3cc(Cl)cc(Cl)c3)c(CCC(=O)O)[nH]c2c1 [Compound 24d, 3-(3-((3,5-Dichlorophenyl)thio)-6-methyl-1H-indol-2-yl)propanoic acid]		fold decrease in antiviral potency [3]: ~ 5 fold
CCCCCCNC(=O)CCc1[nH]c2cc(C)ccc2c1Sc1cc(Cl)cc(Cl)c1 [Compound 24e, 3-(3-((3,5-Dichlorophenyl)thio)-6-methyl-1H-indol-2-yl)-N-hexylpropanamide]	loss of activity	
COC(=O)c1[nH]c2cc(C)ccc2c1Sc1cc(Cl)cc(Cl)c1 [Compound 27]	loss of activity	
CNC(=O)c1[nH]c2cc(C)ccc2c1Sc1cc(Cl)cc(Cl)c1 [Compound 28]	loss of activity	
Cc1ccc2c(Sc3cc(Cl)c(Cl)cc3Cl)c(C(=O)O)[nH]c2c1 [Compound 30]		IC50 ([3]; read-out: IC50 (antiviral activity, Table 3)): 21 µM
Cc1ccc2c(Sc3ccc(C(F)(F)F)cc3[N+](=O)[O-])c(C(=O)O)[nH]c2c1 [Compound 31]	loss of activity	
